# From the supplement of paper PMC10307832
# Tests used:
# Assay in all cases: relative viability (nuclei count vs DMSO), 5 days (fraction); higher = more cells survive
# [1] = compound: CN(C/C=C/C1=CC=C(C=C1)Cl)CC2=CC=CC=C2N(CCO)S(=O)(=O)C3=CC=C(C=C3)OC [KN-93] + COc1cc2c(Oc3ccc(NC(=O)C4(C(=O)Nc5ccc(F)cc5)CC4)cc3F)ccnc2cc1OCCCN1CCOCC1 [Foretinib] (partner 0.25 µM)
# Summary of the method: (§1)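 Lung cancer cell lines in 1536-well plates were dosed by pin tool the day after seeding, either with one drug alone or with a fixed anchor-drug dose plus five library-drug doses (not always all listed) in √10 steps. After 5 days, cells were fixed and their nuclei stained in one step (final 0.05% Triton X-100, 1% formaldehyde, 1 ug/ml Hoechst), then counted on 4× images. Relative viability is the nuclei count in treated wells divided by that in vehicle wells. Values are medians of duplicate plates.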
# [2] = compound: CN(C/C=C/C1=CC=C(C=C1)Cl)CC2=CC=CC=C2N(CCO)S(=O)(=O)C3=CC=C(C=C3)OC [KN-93] + Nc1nc2[nH]cc(CCc3ccc(C(=O)N[C@@H](CCC(=O)O)C(=O)O)cc3)c2c(=O)[nH]1 [Pemetrexed] (partner 0.2 µM)
# Summary of the method: as §1
# [3] = compound: CN(C/C=C/C1=CC=C(C=C1)Cl)CC2=CC=CC=C2N(CCO)S(=O)(=O)C3=CC=C(C=C3)OC [KN-93] + Cc1cc(Nc2cc(N3CCN(C)CC3)nc(Sc3ccc(NC(=O)C4CC4)cc3)n2)n[nH]1 [Tozasertib] (partner 0.1 µM)
# Summary of the method: as §1
# [4] = compound: CN(C/C=C/C1=CC=C(C=C1)Cl)CC2=CC=CC=C2N(CCO)S(=O)(=O)C3=CC=C(C=C3)OC [KN-93] + CC1(C)CCC(c2ccc(Cl)cc2)=C(CN2CCN(c3ccc(C(=O)NS(=O)(=O)c4ccc(N[C@H](CCN5CCOCC5)CSc5ccccc5)c(S(=O)(=O)C(F)(F)F)c4)cc3)CC2)C1 [Navitoclax] (partner 0.5 µM)
# Summary of the method: as §1
# [5] = compound: CN(C/C=C/C1=CC=C(C=C1)Cl)CC2=CC=CC=C2N(CCO)S(=O)(=O)C3=CC=C(C=C3)OC [KN-93] + COc1cccc2cc(-c3nc([C@H]4CC[C@H](C(=O)O)CC4)n4ncnc(N)c34)[nH]c12 [OSI-027] (partner 0.5 µM)
# Summary of the method: as §1
Cell Line,relative viability ([1]; first compound 0.08 µM),relative viability ([1]; first compound 0.253 µM),relative viability ([1]; first compound 2.53 µM),relative viability ([1]; first compound 8 µM),relative viability ([2]; first compound 0.08 µM),relative viability ([2]; first compound 0.253 µM),relative viability ([2]; first compound 2.53 µM),relative viability ([2]; first compound 8 µM),relative viability ([3]; first compound 0.08 µM),relative viability ([3]; first compound 0.253 µM),relative viability ([3]; first compound 2.53 µM),relative viability ([3]; first compound 8 µM),relative viability ([4]; first compound 0.08 µM),relative viability ([4]; first compound 0.253 µM),relative viability ([4]; first compound 2.53 µM),relative viability ([4]; first compound 8 µM),relative viability ([5]; first compound 0.08 µM),relative viability ([5]; first compound 0.253 µM),relative viability ([5]; first compound 2.53 µM),relative viability ([5]; first compound 8 µM)
NCI-H2405,1.05,0.995,1.01,0.75,1.06,1.24,1.02,0.775,0.799,0.776,0.733,0.533,0.94,0.833,0.767,0.592,0.62,0.584,0.697,0.606
NCI-H3122,1.05,1.13,1.11,0.912,0.199,0.194,0.19,0.341,0.385,0.39,0.469,0.389,1.11,1.1,1.1,0.846,0.967,1.04,1.04,0.631
PC-3 [JPC-3],0.98,1.14,1,0.784,1.15,1.37,0.898,0.858,0.905,0.957,0.922,0.813,0.75,0.824,0.913,0.64,0.695,0.749,0.771,0.55
PC-14,0.797,0.988,1.12,1.01,0.154,0.126,0.139,0.131,0.642,0.544,0.583,0.21,0.851,1,1.21,0.977,0.522,0.892,0.806,0.519
RERF-LC-KJ,0.791,0.778,1.05,0.833,0.504,0.485,0.46,0.461,0.448,0.477,0.405,0.271,0.863,0.954,0.651,0.673,0.557,0.509,0.588,0.353
SK-LU-1,0.768,1.05,0.938,0.48,0.967,1.19,1.16,0.688,0.337,0.349,0.322,0.278,0.748,0.849,1.3,0.538,0.334,0.328,0.343,0.224
SK-MES-1,0.857,0.656,0.937,0.999,1.03,0.945,1.05,0.806,0.919,0.98,1.04,0.4,1.14,1.18,1.56,1.21,0.517,0.547,0.605,0.415
SW 1573,0.863,0.91,0.933,1,1.07,0.916,0.981,0.307,0.177,0.22,0.191,0.19,0.97,1.12,1.13,0.598,0.473,0.689,0.584,0.252
UMC-11,0.97,1.28,1.23,0.452,0.697,1.01,1.05,0.467,0.178,0.199,0.188,0.203,–,0.345,0.312,0.22,0.442,0.526,0.488,0.314
